These compounds were tested against BRD4 (Homo sapiens, UniProt O60885) (assay: Time resolved fluorescence resonance energy transfer (TR-FRET) binding assay, bromodomain BRD4). Conditions: FRET BRD4 IC50 (nM), one of the FRET assays described.

Compound | IC50 [nM]
[2H]C([2H])([2H])c1nnn(C)c1-c1cnc2c3ccc(N4C5CCCC4CC5)nc3n([C@H](c3ccccc3)C3CCOCC3)c2c1 [Example 184, 11-{8-Azabicyclo[3.2.1]octan-8-yl}-5-[4-(^2H3)methyl-1-methyl-1H-1,2,3-triazol-5-yl]-8-[(S)-oxan-4-yl(phenyl)methyl]-3,8,10-triazatricyclo[7.4.0.0^2,^7]trideca-1(9),2(7),3,5,10,12-hexaene] | < 10

Same assay, conditions: one of the FRET assays described; read-out: FRET BRD4 IC50

Compound | IC50 [nM]
COc1nccc2c3ncc(-c4c(C)nnn4C)cc3n(C(c3cccc(F)c3)C3CCOCC3)c12 (single isomer, unassigned) [Example 20, 5-(Dimethyl-1H-1,2,3-triazol-5-yl)-8-[(3-fluorophenyl)(oxan-4-yl)methyl]-10-methoxy-3,8,11-triazatricyclo[7.4.0.0^2,^7]trideca-1(13),2(7),3,5,9,11-hexaene] | < 10
[2H]C([2H])([2H])c1nnn(C)c1-c1cnc2c3cnc(C(C)=O)cc3n([C@H](c3ccccc3F)C3CCOCC3)c2c1 [Example 333] | < 10
[2H]C([2H])([2H])c1nnn(C)c1-c1cnc2c3cncc(S(C)(=O)=O)c3n([C@H](c3ccccc3)C3CCOCC3)c2c1 [Example 286, 10-Methanesulfonyl-5-[4-(^2H3)methyl-1-methyl-1H-1,2,3-triazol-5-yl]-8-[(S)-oxan-4-yl(phenyl)methyl]-3,8,12-triazatricyclo[7.4.0.0^2,^7]trideca-1(13),2(7),3,5,9,11-hexaene] | < 10
Cc1nnn(C)c1-c1cnc2c3cc(S(C)(=O)=O)ncc3n([C@H](c3ccccc3F)C3CCOCC3)c2c1 [Example 32, 5-(Dimethyl-1H-1,2,3-triazol-5-yl)-8-[(S)-(2-fluorophenyl)(oxan-4-yl)methyl]-12-methanesulfonyl-3,8,11-triazatricyclo[7.4.0.0^2,^7]trideca-1(13),2(7),3,5,9,11-hexaene] | < 10
[2H]C([2H])([2H])c1nnn(C)c1-c1cnc2c3ccc(C(C)(C)O)nc3n([C@H](c3ccccc3)C3CCOCC3)c2c1 [Example 175, 2-{5-[4-(^2H3)Methyl-1-methyl-1H-1,2,3-triazol-5-yl]-8-[(S)-oxan-4-yl(phenyl)methyl]-3,8,10-triazatricyclo[7.4.0.0^2,^7]trideca-1(9),2(7),3,5,10,12-hexaen-11-yl}propan-2-ol] | < 10
[2H]C([2H])([2H])c1nnn(C)c1-c1cnc2c3c(OC)nc(N4CCC(F)(F)CC4)cc3n([C@H](c3ccccc3)C3CCOCC3)c2c1 [Example 343, 11-(4,4-Difluoropiperidin-1-yl)-13-methoxy-5-[4-(^2H3)methyl-1-methyl-1H-1,2,3-triazol-5-yl]-8-[(S)-oxan-4-yl(phenyl)methyl]-3,8,12-triazatricyclo[7.4.0.0^2,^7]trideca-1(13),2(7),3,5,9,11-hexaene] | < 1
2-{5-[4-(^2H3)Methyl-1-methyl-1H-1,2,3-triazol-5-yl]-8-[1-(pyridin-2-yl)butyl]-3,8,12-triazatricyclo[7.4.0.0^2,^7]trideca-1(13),2(7),3,5,9,11-hexaen-11-yl}propan-2-ol [Example 357] | < 10
Cc1nnn(C)c1-c1cnc2c3ccc(NCCP(=O)(O)O)nc3n([C@H](c3ccccc3)C3CCOCC3)c2c1 [Example 219, (2-{[5-(Dimethyl-1H-1,2,3-triazol-5-yl)-8-[(S)-oxan-4-yl(phenyl)methyl]-3,8,10-triazatricyclo[7.4.0.0^2,^7]trideca-1(9),2(7),3,5,10,12-hexaen-11-yl]amino}ethyl)phosphonic acid] | < 1
Cc1nnn(C)c1-c1cnc2c3c(NS(=O)(=O)C4CC4)ncc(S(C)(=O)=O)c3n([C@H](c3ccccc3)C3CCOCC3)c2c1 [Example 97, N-[5-(Dimethyl-1H-1,2,3-triazol-5-yl)-10-methanesulfonyl-8-[(S)-oxan-4-yl(phenyl)methyl]-3,8,12-triazatricyclo[7.4.0.0^2,^7]trideca-1(13),2(7),3,5,9,11-hexaen-13-yl]cyclopropanesulfonamide] | < 1
[2H]C([2H])([2H])c1nnn(C)c1-c1cnc2c3c(OC)ncc(S(C)(=O)=O)c3n(C(c3cccc(F)c3)C3CCOCC3)c2c1 (single isomer, unassigned) [Example 86, 8-[(3-Fluorophenyl)(oxan-4-yl)methyl]-10-methanesulfonyl-13-methoxy-5-[4-(^2H3)methyl-1-methyl-1H-1,2,3-triazol-5-yl]-3,8,12-triazatricyclo[7.4.0.0^2,^7]trideca-1(13),2(7),3,5,9,11-hexaene] | < 10
Cc1nnn(C)c1-c1cnc2c3c(NS(C)(=O)=O)ncc(S(C)(=O)=O)c3n([C@H](c3ccccc3)C3CCOCC3)c2c1 [Example 105, N-[5-(Dimethyl-1H-1,2,3-triazol-5-yl)-10-methanesulfonyl-8-[(S)-oxan-4-yl(phenyl)methyl]-3,8,12-triazatricyclo[7.4.0.0^2,^7]trideca-1(13),2(7),3,5,9,11-hexaen-13-yl]methanesulfonamide] | < 10
Cc1nnn(C)c1-c1cnc2c3ccc(S(=O)(=O)N4CCOCC4)nc3n([C@H](c3ccccc3)C3CCOCC3)c2c1 [Example 197, 5-(Dimethyl-1H-1,2,3-triazol-5-yl)-11-(morpholine-4-sulfonyl)-8-[(S)-oxan-4-yl(phenyl)methyl]-3,8,10-triazatricyclo[7.4.0.0^2,^7]trideca-1(9),2(7),3,5,10,12-hexaene] | < 10
Cc1nnn(C)c1-c1cc2c(cn1)c1ncc(C(C)(C)O)cc1n2[C@H](c1ccccc1)C1CCOCC1 [Example 368] | < 10
[2H]C([2H])([2H])c1nnn(C)c1-c1cnc2c3c(OC(C)C)nccc3n([C@H](c3ccccc3)C3CCOCC3)c2c1 [Example 131, 5-[4-(^2H3)Methyl-1-methyl-1H-1,2,3-triazol-5-yl]-8-[(S)-oxan-4-yl(phenyl)methyl]-13-(propan-2-yloxy)-3,8,12-triazatricyclo[7.4.0.0^2,^7]trideca-1(13),2(7),3,5,9,11-hexaene] | < 10
[2H]C([2H])([2H])c1nnn(C)c1-c1cnc2c3c(N(C)CC)nccc3n([C@H](c3ccccc3)C3CCOCC3)c2c1 [Example 132, N-Ethyl-N-methyl-5-[4-(^2H3)methyl-1-methyl-1H-1,2,3-triazol-5-yl]-8-[(S)-oxan-4-yl(phenyl)methyl]-3,8,12-triazatricyclo[7.4.0.0^2,^7]trideca-1(13),2(7),3,5,9,11-hexaen-13-amine] | < 1
COc1nccc2c3ncc(-c4c(C)nnn4C)cc3n(C(c3c(F)cccc3F)C3CCOCC3)c12 (racemic) [Example 27, 8-[(2,6-Difluorophenyl)(oxan-4-yl)methyl]-5-(dimethyl-1H-1,2,3-triazol-5-yl)-10-methoxy-3,8,11-triazatricyclo[7.4.0.0^2,^7]trideca-1(13),2(7),3,5,9,11-hexaene] | < 10
[2H]C([2H])([2H])c1nnn(C)c1-c1cnc2c3c(O)ncc(S(C)(=O)=O)c3n([C@H](c3ccccc3)C3CCC(F)(F)CC3)c2c1 [Example 92, 8-[(S)-(4,4-Difluorocyclohexyl)(phenyl)methyl]-10-methanesulfonyl-5-[4-(^2H3)methyl-1-methyl-1H-1,2,3-triazol-5-yl]-3,8,12-triazatricyclo[7.4.0.0^2,^7]trideca-1(13),2(7),3,5,9,11-hexaen-13-ol] | < 10
[2H]C([2H])([2H])c1nnn(C)c1-c1cnc2c3cc(C(C)(C)O)cnc3n([C@H](c3ncccc3F)C3CCOCC3)c2c1 [Example 352, 2-{8-[(S)-(3-Fluoropyridin-2-yl)(oxan-4-yl)methyl]-5-[4-(^2H3)methyl-1-methyl-1H-1,2,3-triazol-5-yl]-3,8,10-triazatricyclo[7.4.0.0^2,^7]trideca-1(13),2(7),3,5,9,11-hexaen-12-yl}propan-2-ol] | < 10
Cc1nnn(C)c1-c1cnc2c3ccc(N4CCS(=O)(=O)CC4)nc3n([C@H](c3ccccc3)C3CCOCC3)c2c1 [Example 182, 4-[5-(Dimethyl-1H-1,2,3-triazol-5-yl)-8-[(S)-oxan-4-yl(phenyl)methyl]-3,8,10-triazatricyclo[7.4.0.0^2,^7]trideca-1(9),2(7),3,5,10,12-hexaen-11-yl]-1,4-thiomorpholine-1,1-dione] | < 1
Cc1nnn(C)c1-c1cnc2c3cnc(C#N)nc3n([C@H](c3ccccc3)C3CCOCC3)c2c1 [Example 143, 5-(Dimethyl-1H-1,2,3-triazol-5-yl)-8-[(S)-oxan-4-yl(phenyl)methyl]-3,8,10,12-tetraazatricyclo[7.4.0.0^2,^7]trideca-1(9),2(7),3,5,10,12-hexaene-11-carbonitrile] | < 1500
[2H]C([2H])([2H])c1nnn(C)c1-c1cc2c(cn1)c1ncc(C(C)(C)O)cc1n2C(c1ncccc1F)C1CCOCC1 (single isomer, unassigned) [Example 366] | < 10
Cc1noc(C)c1-c1cnc2c3ccc(S(C)(=O)=O)nc3n([C@H](c3ccccc3F)C3CCOCC3)c2c1 [Example 222, 5-(Dimethyl-1,2-oxazol-4-yl)-8-[(S)-(2-fluorophenyl)(oxan-4-yl)methyl]-11-methanesulfonyl-3,8,10-triazatricyclo[7.4.0.0^2,^7]trideca-1(13),2(7),3,5,9,11-hexaene] | < 10
COc1ccc(CNc2ccc3c4ncc(-c5c(C)nnn5C)cc4n([C@H](c4ccccc4)C4CCOCC4)c3n2)c(OC)c1 [Example 187, N-[(2,4-Dimethoxyphenyl)methyl]-5-(dimethyl-1H-1,2,3-triazol-5-yl)-8-[(S)-oxan-4-yl(phenyl)methyl]-3,8,10-triazatricyclo[7.4.0.0^2,^7]trideca-1(9),2(7),3,5,10,12-hexaen-11-amine] | < 10
[2H]C([2H])([2H])c1nnn(C)c1-c1cnc2c3ccc(N4CC(=O)NC(=O)C4)nc3n([C@H](c3ccccc3)C3CCOCC3)c2c1 [Example 212, 4-{5-[4-(^2H3)Methyl-1-methyl-1H-1,2,3-triazol-5-yl]-8-[(S)-oxan-4-yl(phenyl)methyl]-3,8,10-triazatricyclo[7.4.0.0^2,^7]trideca-1(9),2(7),3,5,10,12-hexaen-11-yl}piperazine-2,6-dione] | < 10
